Measurements as given in ChEMBL document CHEMBL5291721, “A preclinical secondary pharmacology resource illuminates target-adverse drug reaction associations of marketed drugs” (Nat Commun, 2023).

Molecular target: T1, Alpha-1A adrenergic receptor (Homo sapiens, UniProt P35348)
T1 sequence (P35348 whole entry): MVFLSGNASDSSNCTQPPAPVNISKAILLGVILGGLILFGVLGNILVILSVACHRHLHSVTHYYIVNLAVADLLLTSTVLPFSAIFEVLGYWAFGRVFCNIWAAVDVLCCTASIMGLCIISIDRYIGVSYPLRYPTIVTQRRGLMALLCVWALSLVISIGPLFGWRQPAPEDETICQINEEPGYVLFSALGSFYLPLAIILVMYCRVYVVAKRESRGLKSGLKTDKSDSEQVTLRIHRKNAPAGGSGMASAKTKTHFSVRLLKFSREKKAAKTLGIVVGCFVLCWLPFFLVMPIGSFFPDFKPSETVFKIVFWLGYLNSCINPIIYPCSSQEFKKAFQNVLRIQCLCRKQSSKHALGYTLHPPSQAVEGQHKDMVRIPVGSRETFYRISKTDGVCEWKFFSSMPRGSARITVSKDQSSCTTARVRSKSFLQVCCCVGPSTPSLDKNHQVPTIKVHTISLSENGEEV
Assay type: functional, cell-based
Note: assay procedure not described here.

| Compound | AC50 |
| --- | --- |
| C=CCN1CC[C@]23CCCC[C@H]2[C@H]1Cc1ccc(O)cc13 [LEVALLORPHAN] | > 30 µM |
| CC(C)(O)CNc1nc(Nc2ccnc(C(F)(F)F)c2)nc(-c2cccc(C(F)(F)F)n2)n1 [ENASIDENIB] | > 30 µM |
| Cc1onc(-c2ccccc2)c1C(=O)N[C@@H]1C(=O)N2[C@@H]1SC(C)(C)[C@@H]2C(=O)O [OXACILLIN] | > 30 µM |
| O=C(O)COc1ccc(C(=O)c2cccs2)c(Cl)c1Cl | > 30 µM |
| COc1c2ccoc2cc2oc(=O)ccc12 [BERGAPTEN] | > 30 µM |
| CC[C@H](C)C[C@H](C)CCCCCCCCC(=O)N[C@H]1C[C@@H](O)[C@@H](NCCN)NC(=O)[C@@H]2[C@@H](O)CCN2C(=O)[C@H]([C@H](O)CCN)NC(=O)[C@H]([C@H](O)[C@@H](O)c2ccc(O)cc2)NC(=O)[C@@H]2C[C@@H](O)CN2C(=O)[C@H]([C@@H](C)O)NC1=O [CASPOFUNGIN] | > 30 µM |
| Nc1ccc(C(=O)Oc2ccccc2)c(O)c1 [PHENYL AMINOSALICYLATE] | > 30 µM |
